From patent publication US20240150340A1, “CDK Inhibitors And Their Use As Pharmaceuticals” (Prelude Therapeutics Incorporated, priority 2022, published 2024) come the findings set out here.

One test addresses T1, CDK2/Cyclin E2 (Homo sapiens, UniProt P24941).
T1 construct: Recombinant protein complex CDK2/Cyclin E2, expressed from insect cell, was purchased from ProQinase
The test can be described thus: CDK2/CyclinE2 Enzymatic Activity Assay (TR-FRET). Type of test: biochemical. To be noted: ATP 1 mM final, read-out: CDK2_E1 IC50. In a few lines:
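Recombinant insect-cell CDK2/Cyclin E2 (1 nM) phosphorylated ULight-4E-BP1 (50 nM) with 1 mM ATP in HEPES pH 7.4 buffer, after 20 min compound preincubation; MgCl2 (10 mM) started the 45 min reaction at 37° C. Europium anti-phospho-4E-BP1 TR-FRET read; 9-dose IC50 by 4-parameter fit.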
(In TR-FRET formats the signal depends on donor and acceptor labels being close together.)

For another test, the target named is T2, CDK4/Cyclin D1 (Homo sapiens, UniProt P11802).
T2 construct: purchased ProQinase; host or cells: insect cell
T2 sequence (P11802 whole entry): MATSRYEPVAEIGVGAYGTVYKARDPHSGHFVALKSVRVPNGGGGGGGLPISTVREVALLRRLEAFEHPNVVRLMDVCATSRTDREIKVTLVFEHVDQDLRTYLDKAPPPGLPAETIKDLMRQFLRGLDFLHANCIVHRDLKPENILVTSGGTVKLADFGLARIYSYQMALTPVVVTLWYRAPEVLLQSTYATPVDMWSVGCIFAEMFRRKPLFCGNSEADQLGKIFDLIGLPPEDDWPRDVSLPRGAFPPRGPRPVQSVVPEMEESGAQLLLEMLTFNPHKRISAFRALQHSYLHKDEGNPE
T2 sequence (P24385 whole entry partner): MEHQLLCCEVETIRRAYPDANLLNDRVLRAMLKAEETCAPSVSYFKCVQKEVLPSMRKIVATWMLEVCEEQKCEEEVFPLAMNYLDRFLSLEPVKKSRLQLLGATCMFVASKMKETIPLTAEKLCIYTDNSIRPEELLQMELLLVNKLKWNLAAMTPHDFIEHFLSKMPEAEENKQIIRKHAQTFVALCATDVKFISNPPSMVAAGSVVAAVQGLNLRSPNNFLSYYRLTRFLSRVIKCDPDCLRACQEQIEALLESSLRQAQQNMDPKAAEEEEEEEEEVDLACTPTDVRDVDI
Put plainly: CDK4/CyclinD1 Enzymatic Activity Assay (TR-FRET). Type of test: biochemical. To be noted: ATP 2 mM final, read-out: CDK4_D1 IC50. The method, then:
CDK4/CyclinD1 Enzymatic Activity Assay
The inhibitory activity of compounds was evaluated in vitro using TR-FRET assay with white 384-well low volume microplate (Greiner Bio-One). CDK4/Cyclin D1 catalyzed phosphorylation of peptide in the presence and absence of compounds was measured and used in IC50 determination. Recombinant protein complex CDK4/Cyclin D1, expressed from insect cell, was purchased from ProQinase. Testing compounds were dissolved in DMSO at 1 mM and tested in 9-dose IC50 mode. The reaction mixture was prepared by mixing CDK4/CyclinD1 (1 nM final), ULight-4E-BP1 (100 nM final, Perkinelmer, TRF0128-D), and ATP (2 mM final) in assay buffer (20 mM of HEPES pH 7.4, 1 mM of EGTA, 0.05% BSA, 0.005% Tween 20, and 1 mM TCEP). The compound of interest in DMSO was added to each well in 3-fold serial dilution by the dispenser (TECAN D300E) to make a 9.9 μL of reaction mixture. After 20 minutes preincubation at room temperature, 0.1 μL MgCl2 (10 mM final) was added to initiate the reaction. Following a 45-minute incubation at 37° C., the reaction was stopped by addition of 2 μL of quenching buffer consisting of Lance detection buffer (Perkinelmer CR97-100C), LANCE Ultra Europium-anti-P-4E-BP1 (Perkinelmer, TRF0216-D), EDTA, and incubated at room temperature for additional 60 minutes in dark. The reaction signal was measured by Envision multimode plate reader (PerkinElmer, 2102-0010). IC50 values were determined by fitting the data to the standard 4 parameters with Hill Slope using GraphPad Prism software.

In a further test the test system is OVCAR3 p-RB. Put plainly: pRB ICW Assay in OVCAR3 Cells. The class given is cell-based. To be noted: Homo sapiens, OVCAR-3, incubated with compound for 2 hours. In a few lines: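 In-Cell Western on OVCAR3: phospho-RB antibody signal with DRAQ5 counterstain read at 700 and 800 nm after fixation. Compounds were applied for 2 h at 37° C. as 9-point ½-log dilutions in duplicate; 10 μM reference compound defined full inhibition.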

Molecules are shown by their SMILES.

For orientation: IC50 means the concentration needed to halve the response being measured. Turning to `C[C@@H]1CN(S(=O)(=O)c2cnn(C)c2)CC[C@@H]1Nc1ncc(C(F)(F)F)c(-c2cc(C(N)=O)cs2)n1` [Example 19, 5-(2-(((3R,4S)-3-methyl-1-((1-methyl-1H-pyrazol-4-yl)sulfonyl)piperidin-4-yl)amino)-5-(trifluoromethyl)pyrimidin-4-yl)thiophene-3-carboxamide], the IC50 at CDK2/Cyclin E2, at CDK4/Cyclin D1 and in the test on OVCAR3 p-RB was at most 0.1 µM throughout.

With `C[C@@H]1CN(S(=O)(=O)c2cn(C)cn2)CC[C@@H]1Nc1ncc(C(F)(F)F)c(-c2cc(C(N)=O)cs2)n1` [Example 20, 5-(2-(((3R,4S)-3-methyl-1-((1-methyl-1H-imidazol-4-yl)sulfonyl)piperidin-4-yl)amino)-5-(trifluoromethyl)pyrimidin-4-yl)thiophene-3-carboxamide], the figures for the IC50 at CDK2/Cyclin E2, at CDK4/Cyclin D1 and with OVCAR3 p-RB were at most 0.1 µM, at most 0.1 µM and 0.1 to 0.5 µM, respectively.

Consider `C[C@@H]1CN(S(=O)(=O)c2c[nH]cn2)CC[C@@H]1Nc1ncc(C(F)(F)F)c(-c2cc(C(N)=O)cs2)n1` [Example 21, 5-(2-(((3R,4S)-1-((1H-imidazol-4-yl)sulfonyl)-3-methylpiperidin-4-yl)amino)-5-(trifluoromethyl)pyrimidin-4-yl)thiophene-3-carboxamide], for which the IC50 on CDK2/Cyclin E2 was at most 0.1 µM; on CDK4/Cyclin D1, 0.1 to 0.5 µM; in the test on OVCAR3 p-RB it was 0.1 to 0.5 µM.

As to `C[C@@H]1CN(S(=O)(=O)c2cnc3cccnn23)CC[C@@H]1Nc1ncc(C(F)(F)F)c(-c2cc(C(N)=O)cs2)n1` [Example 22, 5-(2-(((3R,4S)-1-(imidazo[1,2-b]pyridazin-3-ylsulfonyl)-3-methylpiperidin-4-yl)amino)-5-(trifluoromethyl)pyrimidin-4-yl)thiophene-3-carboxamide], the values for the IC50 at CDK2/Cyclin E2, at CDK4/Cyclin D1 and in the test with OVCAR3 p-RB were at most 0.1 µM, 0.1 to 0.5 µM and at most 0.1 µM, respectively.

For the compound `Cc1sc(-c2nc(N[C@H]3CCN(S(=O)(=O)c4cnn(C)c4)C[C@H]3C)ncc2C(F)(F)F)cc1C(N)=O` [Example 23, 2-methyl-5-(2-(((3R,4S)-3-methyl-1-((1-methyl-1H-pyrazol-4-yl)sulfonyl)piperidin-4-yl)amino)-5-(trifluoromethyl)pyrimidin-4-yl)thiophene-3-carboxamide], the IC50 on CDK2/Cyclin E2, on CDK4/Cyclin D1 and in the test with OVCAR3 p-RB was at most 0.1 µM in each case.

For `Cc1sc(-c2nc(N[C@H]3CCN(S(=O)(=O)c4cn(C)cn4)C[C@H]3C)ncc2C(F)(F)F)cc1C(N)=O` [Example 24, 2-methyl-5-(2-(((3R,4S)-3-methyl-1-((1-methyl-1H-imidazol-4-yl)sulfonyl)piperidin-4-yl)amino)-5-(trifluoromethyl)pyrimidin-4-yl)thiophene-3-carboxamide], the IC50 at CDK2/Cyclin E2, on CDK4/Cyclin D1 and with OVCAR3 p-RB was at most 0.1 µM throughout.

With `Cc1sc(-c2nc(N[C@H]3CCN(S(=O)(=O)c4c[nH]cn4)C[C@H]3C)ncc2C(F)(F)F)cc1C(N)=O` [Example 25, 5-(2-(((3R,4S)-1-((1H-imidazol-4-yl)sulfonyl)-3-methylpiperidin-4-yl)amino)-5-(trifluoromethyl)pyrimidin-4-yl)-2-methylthiophene-3-carboxamide], the IC50 on CDK2/Cyclin E2 was at most 0.1 µM; on CDK4/Cyclin D1, at most 0.1 µM; in the test on OVCAR3 p-RB, 0.1 to 0.5 µM.

Consider `Cc1cnc(-c2nc(N[C@H]3CCN(S(=O)(=O)c4cnn(C)c4)C[C@H]3F)ncc2C(F)(F)F)s1` [Example 26, N-((3R,4S)-3-fluoro-1-((1-methyl-1H-pyrazol-4-yl)sulfonyl)piperidin-4-yl)-4-(5-methylthiazol-2-yl)-5-(trifluoromethyl)pyrimidin-2-amine], for which the IC50 at CDK2/Cyclin E2, at CDK4/Cyclin D1 and in the test with OVCAR3 p-RB was at most 0.1 µM in each case.

As for `Cc1cnc(-c2nc(N[C@@H]3CCN(S(=O)(=O)c4cnn(C)c4)C[C@H]3F)ncc2C(F)(F)F)s1` [Example 27, N-((3R,4R)-3-fluoro-1-((1-methyl-1H-pyrazol-4-yl)sulfonyl)piperidin-4-yl)-4-(5-methylthiazol-2-yl)-5-(trifluoromethyl)pyrimidin-2-amine], the IC50 was at most 0.1 µM on CDK2/Cyclin E2, at most 0.1 µM on CDK4/Cyclin D1 and 0.1 to 0.5 µM in the test with OVCAR3 p-RB.

For `Cc1cnc(-c2nc(N[C@H]3CCN(S(=O)(=O)c4cn(C)cn4)C[C@H]3F)ncc2C(F)(F)F)s1` [Example 28, N-((3R,4S)-3-fluoro-1-((1-methyl-1H-imidazol-4-yl)sulfonyl)piperidin-4-yl)-4-(5-methylthiazol-2-yl)-5-(trifluoromethyl)pyrimidin-2-amine], the IC50 on CDK2/Cyclin E2, at CDK4/Cyclin D1 and in the test on OVCAR3 p-RB was at most 0.1 µM in each case.

Take `Cc1cnc(-c2nc(N[C@@H]3CCN(S(=O)(=O)c4cn(C)cn4)C[C@H]3F)ncc2C(F)(F)F)s1` [Example 29, N-((3R,4R)-3-fluoro-1-((1-methyl-1H-imidazol-4-yl)sulfonyl)piperidin-4-yl)-4-(5-methylthiazol-2-yl)-5-(trifluoromethyl)pyrimidin-2-amine]: the IC50 is at most 0.1 µM on CDK2/Cyclin E2, at most 0.1 µM at CDK4/Cyclin D1 and 0.1 to 0.5 µM with OVCAR3 p-RB.

For `Cc1sc(-c2nc(N[C@H]3CCN(S(=O)(=O)c4cnn(C)c4)C[C@H]3F)ncc2C(F)(F)F)cc1C#N` [Example 30, 5-(2-(((3R,4S)-3-fluoro-1-((1-methyl-1H-pyrazol-4-yl)sulfonyl)piperidin-4-yl)amino)-5-(trifluoromethyl)pyrimidin-4-yl)-2-methylthiophene-3-carbonitrile], the IC50 at CDK2/Cyclin E2, at CDK4/Cyclin D1 and in the test on OVCAR3 p-RB was at most 0.1 µM each time.

For the compound `Cc1sc(-c2nc(N[C@H]3CCN(S(=O)(=O)c4cn(C)cn4)C[C@H]3F)ncc2C(F)(F)F)cc1C#N` [Example 31, 5-(2-(((3R,4S)-3-fluoro-1-((1-methyl-1H-imidazol-4-yl)sulfonyl)piperidin-4-yl)amino)-5-(trifluoromethyl)pyrimidin-4-yl)-2-methylthiophene-3-carbonitrile], the IC50 at CDK2/Cyclin E2, on CDK4/Cyclin D1 and with OVCAR3 p-RB was at most 0.1 µM each time.

In the case of `Cc1cnc(-c2nc(NC3CCN(S(=O)(=O)c4cn(C)cn4)CC3)ncc2C(F)(F)F)s1` [Example 32, N-(1-((1-methyl-1H-imidazol-4-yl)sulfonyl)piperidin-4-yl)-4-(5-methylthiazol-2-yl)-5-(trifluoromethyl)pyrimidin-2-amine], the IC50 at CDK2/Cyclin E2, at CDK4/Cyclin D1 and with OVCAR3 p-RB was at most 0.1 µM each time.

On to `CC(O)c1sc(-c2nc(NC3CCN(S(=O)(=O)c4cn(C)cn4)CC3)ncc2C(F)(F)F)cc1C#N` (stereo not drawn) [Example 33, 2-(1-hydroxyethyl)-5-(2-((1-((1-methyl-1H-imidazol-4-yl)sulfonyl)piperidin-4-yl)amino)-5-(trifluoromethyl)pyrimidin-4-yl)thiophene-3-carbonitrile], for which the IC50 on CDK2/Cyclin E2, at CDK4/Cyclin D1 and in the test on OVCAR3 p-RB was at most 0.1 µM each time.

On to `CC(O)c1sc(-c2nc(N[C@H]3CCN(S(=O)(=O)c4cnn(C)c4)C[C@H]3F)ncc2C(F)(F)F)cc1C#N` (stereo partly drawn) [Example 34, 5-(2-(((3R,4S)-3-fluoro-1-((1-methyl-1H-pyrazol-4-yl)sulfonyl)piperidin-4-yl)amino)-5-(trifluoromethyl)pyrimidin-4-yl)-2-(1-hydroxyethyl)thiophene-3-carbonitrile], for which the IC50 on CDK2/Cyclin E2, at CDK4/Cyclin D1 and in the test with OVCAR3 p-RB was at most 0.1 µM throughout.

With `CC(O)c1sc(-c2nc(N[C@H]3CCN(S(=O)(=O)c4cn(C)cn4)C[C@H]3F)ncc2C(F)(F)F)cc1C#N` (stereo partly drawn) [Example 35, 5-(2-(((3R,4S)-3-fluoro-1-((1-methyl-1H-imidazol-4-yl)sulfonyl)piperidin-4-yl)amino)-5-(trifluoromethyl)pyrimidin-4-yl)-2-(1-hydroxyethyl)thiophene-3-carbonitrile], the IC50 on CDK2/Cyclin E2, at CDK4/Cyclin D1 and in the test with OVCAR3 p-RB was at most 0.1 µM each time.

Regarding `CC(O)c1sc(-c2nc(N[C@@H]3CCN(S(=O)(=O)c4cnn(C)c4)C[C@H]3F)ncc2C(F)(F)F)cc1C#N` (stereo partly drawn) [Example 36, 5-(2-(((3R,4R)-3-fluoro-1-((1-methyl-1H-pyrazol-4-yl)sulfonyl)piperidin-4-yl)amino)-5-(trifluoromethyl)pyrimidin-4-yl)-2-(1-hydroxyethyl)thiophene-3-carbonitrile], the IC50 on CDK2/Cyclin E2, on CDK4/Cyclin D1 and with OVCAR3 p-RB was at most 0.1 µM throughout.
